Results reported in patent US4567165A, “N-Methanesulfonic acid derivatives of 3-demethoxyistamycin B” (Zaidan Hojin Biseibutsu Kagaku Kenkyu Kai, priority 1984, dated 1986).
Converted amounts (≈) assume the structure as drawn.

Assays:
[1] = tested on: Escherichia coli JR66/W677; experiment: Minimum inhibitory concentration, standard serial dilution method on Mueller-Hinton agar; format: cell-based; settings: 37° C., 17 hours
Excerpt: (§1) Minimum inhibitory concentrations (mcg/ml) of the parent 3-demethoxyistamycin B were also estimated in the same manner for the comparison purpose and also are shown in Table 1.

[2] = tested on: Escherichia coli K-12 C600 R135; experiment: as above; format: cell-based; settings: 17 hours; for Minimum Inhibitory concentration: 37° C.
Excerpt: as §1

Providencia Pv 16 = experiment: as above; format: cell-based; settings: 17 hours; for Minimum Inhibitory concentration: 37° C.
Excerpt: as §1

[3] = tested on: Pseudomonas aeruginosa A3; experiment: as above; format: cell-based; settings: 37° C., 17 hours
Excerpt: as §1

[4] = tested on: Pseudomonas aeruginosa GN315; experiment: as above; format: cell-based; settings: 37° C., 17 hours
Excerpt: as §1

[5] = tested on: Pseudomonas aeruginosa H9; experiment: as above; format: cell-based; settings: 37° C., 17 hours
Excerpt: as §1

[6] = tested on: Pseudomonas aeruginosa TI-13; experiment: as above; format: cell-based; settings: 17 hours; for Minimum Inhibitory concentration: 37° C.
Excerpt: as §1

Serratia marcescens = experiment: as above; format: cell-based; settings: 37° C., 17 hours
Excerpt: as §1

[7] = tested on: Staphylococcus aureus 209P; experiment: as above; format: cell-based; settings: for Minimum Inhibitory concentration: Staphylococcus aureus 209P, Mueller-Hinton agar, 37° C., 17 hours
Excerpt: as §1

[8] = tested on: Staphylococcus aureus Ap01; experiment: as above; format: cell-based; settings: 37° C., 17 hours
Excerpt: as §1

Escherichia coli JR225 = experiment: as above; format: cell-based; settings: JR225, 17 h, read-out: Minimum Inhibitory concentration
Excerpt: as §1

[9] = tested on: Escherichia coli K-12 LA290 R55; experiment: as above; format: cell-based; settings: K12LA290R55, 17 h, read-out: Minimum Inhibitory concentration
Excerpt: as §1

[10] = tested on: Escherichia coli K-12 ML1629; experiment: as above; format: cell-based; settings: K12ML1629, 37° C., 17 hours
Excerpt: as §1

Escherichia coli K-12 R5 = experiment: as above; format: cell-based; settings: K12R5, 17 h, read-out: Minimum Inhibitory concentration
Excerpt: as §1

Escherichia coli K-12 = experiment: as above; format: cell-based; settings: K12, 37° C., 17 hours
Excerpt: as §1

[11] = Acute toxicity, intravenous, in mice; settings: mouse, in vivo, mice (ICR, adult female), single administration in saline
Experimental: Acute toxicity of the various N-methanesulfonic acid derivatives of 3-demethoxyistamycin B of the invention has been determined by the following procedure:
A test compound or substance was dissolved in 0.25 ml of a physiological saline solution and the solution of the test compound or substance so prepared was intravenously administered into a series of mouse groups each consisting of six mice (ICR strain, adult female, body weight 20 g±0.5 g) as the test animal, so that the test compound or substance was given to each mouse. Acute toxicity of 3-demethoxyistamycin B was also estimated in the same manner as above for the comparison purpose.

| Compound | Minimum Inhibitory concentration [1] [µg/mL] | Minimum Inhibitory concentration [2] [µg/mL] | Minimum Inhibitory concentration (Providencia Pv 16) [µg/mL] | Minimum Inhibitory concentration [4] [µg/mL] | Minimum Inhibitory concentration [5] [µg/mL] | Minimum Inhibitory concentration [6] [µg/mL] | Minimum Inhibitory concentration (Serratia marcescens) [µg/mL] | Minimum Inhibitory concentration [7] [µg/mL] | Minimum Inhibitory concentration [8] [µg/mL] | further results |
| --- | --- | --- | --- | --- | --- | --- | --- | --- | --- | --- |
| 3-demethoxyistamycin B-di-N-methanesulfonicacid sodium salt [Compound (2)] | 3.13 | 6.25 | 1.56 | 100 | 50 | 25 | 3.13 | 0.78 | 0.78 | Minimum Inhibitory concentration [3]: 0.78 µg/mL |
| 3-demethoxyistamycin B-mono-N-methanesulfonic acid sodium salt [Compound (1)] | – | 6.25 | – | 100 | 50 | 25 | – | – | – | – |
| 3-demethoxyistamycin B-tetra-N-methanesulfonic acid sodium salt [Compound (4)] | 6.25 | – | 1.56 | – | 50 | – | 3.13 | – | 1.56 | – |
| 3-demethoxyistamycin B-tri-N-methanesulfonic acid sodium salt [Compound (3)] | 3.13 | – | – | 50 | 50 | 25 | 6.25 | 1.56 | 0.78 | – |
| CNCC1CCC(N)C(OC2C(N)CCC(N(C)C(=O)CN)C2O)O1 (stereo not drawn) [3-Demethoxyistamycin B] | – | – | – | – | – | – | – | – | – | MIC (Escherichia coli JR225): 0.78 µg/mL (≈ 2.17 µM); MIC [1]: 0.78 µg/mL (≈ 2.17 µM); MIC ([2]; K12C600R135, 37° C.): 0.78 µg/mL (≈ 2.17 µM); MIC [9]: 1.56 µg/mL (≈ 4.34 µM); MIC [10]: 0.78 µg/mL (≈ 2.17 µM); MIC (Escherichia coli K-12 R5): 1.56 µg/mL (≈ 4.34 µM); MIC (Escherichia coli K-12): 0.78 µg/mL (≈ 2.17 µM); MIC (Providencia Pv 16; PV16, 37° C.): 0.78 µg/mL (≈ 2.17 µM); MIC [3]: 0.39 µg/mL (≈ 1.08 µM); MIC [4]: 6.25 µg/mL (≈ 17.4 µM); MIC [5]: 12.5 µg/mL (≈ 34.8 µM); MIC ([6]; TI13, 37° C.): 6.25 µg/mL (≈ 17.4 µM); MIC (Serratia marcescens): 0.78 µg/mL (≈ 2.17 µM); MIC ([7]; Staphylococcus aureus, 209P, 17 h, read-out: Minimum Inhibitory concentration): < 0.2 µg/mL; MIC [8]: 0.39 µg/mL (≈ 1.08 µM); LD50 [11]: 100 to 200 mg/kg |
